Experimental data reported in US8435975B2, “Steroidal esters of 17-oximino-5-androsten-3beta-ol” (Council of Scientific & Industrial Research, priority 2007, dated 2013).
“And” between values parts separate entries of the source, which are not always exact repeats. Equal values may be shown once.

Legend:
[1] = system: mouse macrophages (Balb C); test: In vitro cytotoxicity using mouse macrophages (acute toxicity), MTT assay; type: cell-based
Protocol: (§1) All steroids were dissolved in ethanol and diluted to appropriate concentration: 0.01, 0.5, 1.0, 2.0, 5.0 μg/ml from the two stock solution of 1 mg/ml and […]. Stocks were maintained at room temperature.
(§2) […] Approximately 1 ml of Phosphate buffer saline preincubated at 37° C. was injected into cavity. The abdomen was lavaged for 10 min and fluid along with macrophages were taken out using a syringe into polypropylene tube. The phosphate solution was spun at 800 rpm for 5-10 min and cells were resuspended in 1 ml RPMI media. Cell number was counted using haemocytometer.
(§3) Cells (mouse macrophages) were plated at a density of 5×10^3 cells/well in 96 plate at 37° C. in 5% CO2. Cells were exposed in graded concentration of compounds at designated various concentration. Each concentration was tested in triplicate wells. After 48 hr fresh MTT 20 μl (1 mg/ml) was added directly to all the wells and culture was incubated for 4 hr at 37° C. During this incubation, MTT was converted into a water insoluble formazan complex by metabolic activity of viable cells. Formazan crystal were taken and dissolved in 100 μl of DMSO, which give light pink colour. The absorbance of each well was read on Elisa plate reader (Merck) at 570 nm. The spectrometer was calibrated to zero absorbance using culture medium without cells. The relative cell viability (%) related to control well containing cell culture medium without drug was calculated by [A]test/[A]control×100. % Cell Viability=[A]test/[A]control×100 [A]test=absorbance test sample [A]control=absorbance control sample Results: LC50: Concentration of the Compound in μg/ml (μm), Lethal to 50% Population of Cells.
(§4) The assay quantifies the viable cells, after […] incubation of cells with five different concentrations.

[2] = as above; type: cell-based; details: both sexes, Balb C; mouse macrophages, from linear equation of MTT data; read-out: LC50 (concentration lethal to 50% population of cells)
Protocol: as §1, §2, §3, §4

[3] = system: human prostate cancer cell line (DU-145); test: Growth inhibitory activity assay (MTT assay), in vitro antiproliferative activity; type: cell-based; details: DU-145 cells; for % growth inhibition (mean ± SEM) / inhibition at 5 µg/mL: 5.0 μg/ml; for % growth inhibition (mean ± SEM) / inhibition at 0.01 µg/mL / inhibition at 0.5 µg/mL / inhibition at 1 µg/mL / inhibition at 2 µg/mL / inhibition at 5 µg/mL: 48 hr; for antiproliferative activity (in words): 0.01-5.0 μg/ml; for inhibition at 0.01 µg/mL / inhibition at 0.5 µg/mL / inhibition at 1 µg/mL / inhibition at 2 µg/mL / inhibition at 5 µg/mL: Homo sapiens, DU-145, 48 h, read-out: % growth inhibition (mean ± SEM); for inhibition at 0.01 µg/mL: 0.01 μg/ml; for inhibition at 0.5 µg/mL: 0.5 μg/ml; for inhibition at 1 µg/mL: 1.0 μg/ml; for inhibition at 2 µg/mL: 2.0 μg/ml
Protocol: 1) In Vitro Antiproliferative Activity Against Human Prostate Cancer Cell Line (DU-145)
Compounds were screened for antiproliferative activity on human prostate cell line DU-145 at National Centre of Human Genome Studies and Research. Panjab University, Chandigarh. All the compounds (10 to 16), Finasteride and starting material (9) were tested at five different concentrations: 0.01, 0.5, 1.0, 2.0, and 5.0 μg/ml. Finasteride was the positive control in this growth inhibitory assay.
Growth Inhibitory Activity Assay (MTT Assay)
We investigated the effect of newly synthesized compounds on cell growth inhibition using MTT assay. This assay quantifies the viable cells by observing the reduction of tetrazolium salt, MTT to formazan crystals by the live cells. Based on the absorbance of the cell sample after the test is carried out, cell viable can be measured [Loveland, B. E.; Jones, T. G.; Mackay. I. R.; Vaillant, F.; Wang, Z. X.; Hertzog, P. J. Biochem. International 1992, 27, 501 and Wright, S. A.; Thomas, L. N.; Douglas, R. C.; Lazier, C. B.; Rittmaster, R. S. J. Clin. Invest. 1996, 98, 2558]. Cells were cultured at a density of 5×10^3 cells/well in 96 well plates at 37° C. in 5.0% CO2 atmosphere and were allowed to attach for 24 hr. The cells were treated in triplicate with graded concentration of sample and reference drug Finasteride at 37° C. for 48 hr. A 20 μl aliquot of MTT solution was added directly to all the appropriate wells. Following 4 hr of incubation at […], the media was removed and formazan crystals, which results from the reduction of MTT by active cell were dissolved in 100 μl DMSO and vigorously mixed to dissolve the reacted dye. The absorbance of each well was read on Elisa plate reader (Merck) at 570 nm. The spectrometer was calibrated to zero absorbance using culture medium without cells. The relative cell viability (%) related to control well containing cell culture medium without drug was calculated by [A]test/[A]control×100. % Growth Inhibition=[OD]control−[OD]test/[OD]control×100 Results: […]

[4] = system: 5α-reductase; test: In vivo effect on serum testosterone level (5α-reductase inhibitory activity), ELISA; set-up: species or system Sprague Dawley rats; details: for Serum levels of Testosterone, T: Sprague Dawley male rats, intraperitoneal, Finasteride 40 mg/kg and equimolar dose of compounds, 6 hr after treatment; for effect on serum testosterone level (in words): rats, 6 hr post dose, compared to control
Protocol: Animals (Sprague Dawley male rats weighing 150-200 g) were divided into 3 groups; vehicle (control), Finasteride (standard), treated (test sample) and each group consist of 5 animals. Sprague Dawley rats were treated intraperitoneally with Finasteride 40 mg/kg and equimolar dose of compounds. After 6 hr of treatment, blood was withdrawn by cardiac puncture under diethyl ether anesthesia and serum was separated from cells by centrifugation. Plasma testosterone values were obtained by ELISA plate reader at […] and are given in ng/ml.
The aliquots of 50 μl of each of standards, control and unknown (serum samples) were added to Testosterone Antibody coated wells. 100 μl of HRP-testosterone conjugate was added to all the wells and the plates were shaken gently on a shaker for proper mixing of the reagents. Following 4 hr of incubation at 37° C., the incubation mixture was removed. The wells were washed with phosphate buffer for 5-6 times (200 μl each time), followed by addition of 100 μl of TMB/H2O2 substrate in each of the wells. The plates were further incubated at 37° C. for 20 minutes. At the end of incubation reaction was stopped by using 100 μl of 0.5 M H2SO4 as stopping reagent. The absorbance of each well was read on Elisa plate reader at 450 nm [Rassaie, M. J.; Kumari, G. L.; Pandey, P. K.; Gupta, N.; Kochupillai, N.; Grover, P. K. Steroids 1992, 57, 288 and Hosoda, H.; Yoshida, H.; Sakai, Y.; Miyairi, S.; Nambara, T. Chem. Pharm. Bull. 1980, 28, 3035]
Intact male rats (Sprague Dawley, 200-250 g) were used in the designed study in which various compounds were compared for in vivo 5α-reductase inhibitory potency, as judged by the their ability to attenuate the conversion of testosterone into dihydrotestosterone (DHT). […] The procedure measure T equally well, and method met all the requirement of precision, accuracy, sensitivity and selectivity.

[5] = both, Balb C, mouse, 48 h, 0.01 μg/ml
[6] = both, Balb C, mouse, 48 h, 0.5 μg/ml
[7] = both, Balb C, mouse, 48 h, 1 μg/ml
[8] = both, Balb C, mouse, 48 h, 2 μg/ml
[9] = both, Balb C, mouse, 48 h, 5 μg/ml

Compound	% viable Cells (mean ± SEM) [1, 5] [%]	% viable Cells (mean ± SEM) [1, 6] [%]	% viable Cells (mean ± SEM) [1, 7] [%]	% viable Cells (mean ± SEM) [1, 8] [%]	% viable Cells (mean ± SEM) [1, 9] [%]	CC50 at 48 h [2] [µM]	% growth inhibition (mean ± SEM) [3] [%]	antiproliferative activity (in words) [3]	inhibition at 0.01 µg/mL [3] [%]	inhibition at 0.5 µg/mL [3] [%]	inhibition at 1 µg/mL [3] [%]	inhibition at 2 µg/mL [3] [%]	inhibition at 5 µg/mL [3] [%]	Serum levels of Testosterone, T [4]	effect on serum testosterone level (in words) [4]	other results
Cc1ccc(C(=O)O[C@H]2CC[C@@]3(C)C(=CC[C@@H]4[C@@H]3CC[C@]3(C)C(=NO)CC[C@@H]43)C2)cc1 [Compound 12, 17-oximino-5-androsten-3β-yl 4-methylbenzoate]	79.39 ± 0.77	77.46 ± 0.75	73.03 ± 0.36	69.10 ± 0.84	65.26 ± 2.79	22	92.94 ± 0.13	more potent than the reference Finasteride	42.6 ± 2.21	63 ± 4.78	85 ± 3.99	89.5 ± 0.96	> 90	1.16 ng/mL	increased activity	
C[C@]12CC[C@H](OC(=O)c3ccc(N)cc3)CC1=CC[C@@H]1[C@@H]2CC[C@]2(C)C(=NO)CC[C@@H]12 [Compound 14, 17-oximino-5-androsten-3β-yl 4-aminobenzoate]	85.75 ± 0.28	77.69 ± 0.38	76.80 ± 0.23	75.82 ± 0.33	72.82 ± 0.28	29.4	91.02 ± 1.25	more potent than the reference Finasteride	71.8 ± 4.24	62.1 ± 11.4	79.5 ± 7.76	83.9 ± 6.7	> 90	1.19 ng/mL	increased activity	
C[C@]12CC[C@H](OC(=O)c3ccccc3)CC1=CC[C@@H]1[C@@H]2CC[C@]2(C)C(=NO)CC[C@@H]12 [Compound 13, 17-oximino-5-androsten-3β-yl benzoate]						89.4	91.10 ± 2.10	more potent than the reference Finasteride	47 ± 1.67	48.9 ± 1.66	67.6 ± 1.62	85.9 ± 4.08	> 90	1.05 ± 0.08 ng/mL and 1.05 ng/mL		% viable Cells (mean ± SEM) ([1]; mouse macrophages, 0.01 μg/ml): 87.71 ± 0.29%; % viable Cells (mean ± SEM) ([1]; mouse macrophages, 0.5 μg/ml): 84.74 ± 0.27%; % viable Cells (mean ± SEM) ([1]; mouse macrophages, 1.0 μg/ml): 83.61 ± 0.20%; % viable Cells (mean ± SEM) ([1]; mouse macrophages, 2.0 μg/ml): 83.85 ± 0.28%; % viable Cells (mean ± SEM) ([1]; mouse macrophages, 5.0 μg/ml): 82.99 ± 0.36%; toxicity to mouse macrophages (in words) ([1]; mouse macrophages, 0.01-5.0 μg/ml): non toxic to mouse macrophages
